Test systems include 786-0 renal; A498 renal; A549 NSCLC; BT-549 breast; EKVX NSCLC; HOP-62 NSCLC; K-562 leukemia; KM12 colon; M14 melanoma; NCI-H460 lung; OVCAR-4 ovarian; OVCAR-5 ovarian; RXF 393 renal; SF-295 CNS; SK-MEL-2 melanoma; SK-MEL-28 melanoma; SR leukemia; SW-620 colon; UACC-257 melanoma; UO-31 renal.
What all share (test): growth of human tumour cells (NCI), 48 h

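Cells were grown in 96-well plates and exposed to each compound for 48 hours at five concentrations; endpoints were interpolated linearly between bracketing concentrations, or set to the highest concentration if not reached. TGI marks complete inhibition of growth.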

Turning to `CC(C)(C)OC(=O)N1CCCC1C(=O)NC(c1ccccc1)c1ccccc1` (configuration not stated), the TGI in the experiment on 786-0 renal, in the experiment on A498 renal, in the experiment on A549 NSCLC, with BT-549 breast, in the experiment with EKVX NSCLC and in the experiment on HOP-62 NSCLC was over 100 µM in each case. The TGI with K-562 leukemia, with KM12 colon, with M14 melanoma, in the experiment with NCI-H460 lung, in the experiment with OVCAR-4 ovarian and in the experiment with OVCAR-5 ovarian was over 100 µM in each case. For the same molecule, the TGI in the experiment on RXF 393 renal, in the experiment on SF-295 CNS, with SK-MEL-2 melanoma, with SK-MEL-28 melanoma, in the experiment on SR leukemia and in the experiment on SW-620 colon was over 100 µM throughout. Besides, the TGI with UACC-257 melanoma and with UO-31 renal was over 100 µM each time.

For `Cc1cn(C2CC(N=[N+]=[N-])C(COP(=O)(O)OCC3OC(n4cc(F)c(=O)[nH]c4=O)CC3O)O2)c(=O)[nH]c1=O` (configuration not stated), the TGI is over 100 µM with 786-0 renal; over 100 µM with A498 renal; over 100 µM in the experiment with A549 NSCLC; over 100 µM with BT-549 breast; 22.7 µM in the experiment with EKVX NSCLC; over 100 µM in the experiment with HOP-62 NSCLC. Also, the TGI with K-562 leukemia is over 65.7 µM; in the experiment on KM12 colon, over 45.5 µM; in the experiment with M14 melanoma it was over 100 µM; with NCI-H460 lung it was over 100 µM; with OVCAR-5 ovarian, over 100 µM; in the experiment on RXF 393 renal, over 100 µM. Further, the TGI with SF-295 CNS, in the experiment with SK-MEL-2 melanoma, in the experiment on SK-MEL-28 melanoma, in the experiment on SR leukemia, with SW-620 colon and with UACC-257 melanoma was over 100 µM in each case. In the experiment on UO-31 renal, the TGI was over 100 µM.

As to `COc1cc(OC)c2c(=O)c3cccc(C)c3n(C)c2c1`, the TGI with 786-0 renal, in the experiment on A498 renal, with A549 NSCLC, in the experiment on BT-549 breast, with EKVX NSCLC and in the experiment on HOP-62 NSCLC was over 100 µM throughout. Besides, the TGI in the experiment on K-562 leukemia is 59.4 µM; in the experiment on KM12 colon, over 100 µM; in the experiment on M14 melanoma, over 100 µM; in the experiment on NCI-H460 lung, over 100 µM; with OVCAR-4 ovarian it was over 100 µM; in the experiment with OVCAR-5 ovarian, over 100 µM. The TGI in the experiment on RXF 393 renal, in the experiment with SF-295 CNS, in the experiment on SK-MEL-2 melanoma, in the experiment with SK-MEL-28 melanoma, in the experiment with SR leukemia and in the experiment with SW-620 colon was over 100 µM each time. Besides, the TGI in the experiment on UACC-257 melanoma was over 100 µM.

As to `C[C@@H]1CC[C@H]2[C@H](C)C(OC3O[C@@H]4O[C@@]5(C)CC[C@H]6[C@H](C)CC[C@@H]([C@@H]3C)[C@@]46O5)O[C@@H]3O[C@@]4(C)CC[C@@H]1[C@]32O4` (some centres not stated), the TGI in the experiment on 786-0 renal, with A498 renal, in the experiment on A549 NSCLC, with BT-549 breast, with EKVX NSCLC and with HOP-62 NSCLC was over 100 µM throughout. Besides, the TGI with K-562 leukemia, in the experiment on KM12 colon, in the experiment on M14 melanoma, in the experiment on NCI-H460 lung, with OVCAR-4 ovarian and with OVCAR-5 ovarian was over 100 µM each time. For the same molecule, the TGI in the experiment with SF-295 CNS, in the experiment with SK-MEL-2 melanoma, in the experiment with SK-MEL-28 melanoma, with SR leukemia, with SW-620 colon and with UACC-257 melanoma was over 100 µM in each case.

On to `CC(C)[Si]1(C(C)C)OCC2OC(n3ccc(=O)[nH]c3=O)C([Se]c3ccccc3)C2O[Si](C(C)C)(C(C)C)O1` (configuration not stated), for which the TGI came to 7.77 µM in the experiment with 786-0 renal; 18.9 µM in the experiment with A498 renal; 22.1 µM with A549 NSCLC; 23.7 µM in the experiment with BT-549 breast; 17.5 µM in the experiment with EKVX NSCLC; 25.2 µM with HOP-62 NSCLC. Moreover, the TGI in the experiment on KM12 colon was 6.62 µM; in the experiment with M14 melanoma, 21.8 µM; with NCI-H460 lung it was 3.89 µM; in the experiment on OVCAR-4 ovarian it was 9.67 µM; with OVCAR-5 ovarian, 22.8 µM; in the experiment on RXF 393 renal, 9.65 µM. Besides, the TGI stood at 18 µM with SF-295 CNS; 20.1 µM with SK-MEL-2 melanoma; 12.5 µM with SK-MEL-28 melanoma; 27.1 µM in the experiment on SR leukemia; 6.62 µM in the experiment on SW-620 colon; 13.9 µM with UACC-257 melanoma. In the experiment on UO-31 renal, this molecule gave a TGI of 21.5 µM.

In the case of `Cc1c(/C=N/NC(=S)N2CCCCC2)c(=O)n(-c2ccccc2)n1C`, the TGI in the experiment on 786-0 renal, in the experiment with A498 renal, with A549 NSCLC, in the experiment on BT-549 breast, in the experiment on EKVX NSCLC and in the experiment on HOP-62 NSCLC was over 100 µM throughout. Besides, the TGI in the experiment with K-562 leukemia is over 100 µM; in the experiment with KM12 colon it was over 100 µM; in the experiment with M14 melanoma, over 100 µM; with NCI-H460 lung, over 100 µM; in the experiment with OVCAR-5 ovarian it was over 100 µM; in the experiment on RXF 393 renal, 97.3 µM. Further, the TGI in the experiment with SF-295 CNS, with SK-MEL-28 melanoma, with SR leukemia, in the experiment on SW-620 colon, with UACC-257 melanoma and with UO-31 renal was over 100 µM in each case.

For `COc1cc2cc(C(=O)N3CC(CCl)c4ccc([N+](C)(C)Cc5ccccc5[N+](=O)[O-])cc43)[nH]c2c(OC)c1OC` (configuration not stated), the TGI is over 36.3 µM in the experiment with 786-0 renal; 1.37 µM in the experiment with A498 renal; over 100 µM in the experiment on A549 NSCLC; 6.29 µM in the experiment on BT-549 breast; 21.3 µM in the experiment with EKVX NSCLC; 18.1 µM in the experiment on HOP-62 NSCLC. In addition, the TGI in the experiment with K-562 leukemia was 12.5 µM; in the experiment on KM12 colon, 10.2 µM; with M14 melanoma, 19 µM; in the experiment with OVCAR-4 ovarian it was 12.9 µM; in the experiment on OVCAR-5 ovarian, over 31.3 µM; in the experiment on RXF 393 renal, 2.11 µM. In addition, the TGI in the experiment on SF-295 CNS is 36.5 µM; with SK-MEL-2 melanoma it was 4.44 µM; in the experiment on SK-MEL-28 melanoma, 11.4 µM; with SR leukemia, 4.39 µM; in the experiment with SW-620 colon it was over 75.9 µM; in the experiment with UACC-257 melanoma, 6.75 µM. Moreover, in the experiment with UO-31 renal, the TGI is 5.17 µM.

For the origin of these results see PubChem BioAssay (NCI).
